Experiment: In vitro disulfide cleavage and immolation by incubation with cysteine or glutathione (LC/MS)
Type: physicochemical
Conditions: for Percentage of all products: pH 7.0, 37° C.; for Immolation of thiol intermediate: incubation with cysteine or glutathione
Method: In a first phase of the experiment, disulfide cleavage and immolation by incubation with cysteine and glutathione—with the thiol concentrations mimic those in plasma and cancer cells—was investigated using unconjugated small molecule model systems with para-nitro-pyridyl disulfide-containing linker drug analogs 1, 2 and 11 below. In particular, cleavage and immolation was evaluated in vitro by incubation at […] with cysteine ([…] or 200 μM) or glutathione (GSH, 4 mM) in 100 mM Tris buffer pH 7.0 containing 5% methanol at 37° C. Aliquots were taken at specified time points and the samples were analyzed by LC/MS on Sciex TripleTOF 5600 on a Hypersil Gold C18 column (100×2.1, […], Thermo Scientific). The column was eluted by a gradient of buffer A (0.1% formic acid in 10 mM ammonium acetate) to buffer B (0.1% formic acid in 10 mM ammonium acetate in 90% acetonitrile), 5% B 0-0.5 min, 5-25% B 0.5-8 min, 25-75% B 8-13 min, and 75-95% B 13-13.5 min, 95% B 13.5-14.5 min, 95-5% B 14.5-15 min at 0.4 mL/min. Under these conditions, para-nitropyridyl thiol was eluted at 5.3 min. All products (compounds 1, 2, 11, 3a, 3b, 4a, 4b, 12a, 12 b, 6, 7, 13 and 8) were separated and characterized by LC/MS/MS in a positive ESI ion mode. All analytes had the protonated molecular MH^+ as the major species with little source fragmentation. Full scan accurate mass peak areas were used to estimate relative abundance of each component and the disappearance of 1, 2, and 11 estimated relative full scan peak areas was consistent with that estimated based on the relative abundance compared to time 0 by MS or UV. The results are reported in Table 15 below and the analytical results are presented in Table 16 below where “Cmpd” refers to compound, “RT” refers to retention time in minutes, and “Calc. Mass” refers to calculated mass. The relative abundance of disulfide cleavage and immolation products over time were evaluated and are disclosed in FIGS. 12A to 12C, 13A to 13C, 14A to 14C and 15A to 15C where the products were monitored by LC/MS from incubations of linker drugs 1, 2, and 11 at pH 7.0 and 37° C. in the presence of: 0.2 mM cysteine (FIGS. 12A, 12B and 12C); 0.03 mM cysteine (FIGS. 13A, 13B and 13C); 4 mM glutathione (FIGS. 14A, 14B and 14C); and 0.03 mM glutathione (FIGS. 15A, 15B and 15C). In FIGS. 12A to 12C, 13A to 13C, 14A to 14C and 15A to 15C, compound reference numbers 1, 2, 3a, 3b, 4a, 4b, 6, 7, 8, 11, 12a, 12b and 13 correspond to the structures below.

C=C1C[C@H]2C=Nc3cc(OCCCCCOc4cc5c(cc4OC)C(=O)N4CC(=C)C[C@H]4C(O)N5C(=O)OCC4(SSC[C@H](NC(=O)CC[C@H](N)C(=O)O)C(=O)NCC(=O)O)CCC4)c(OC)cc3C(=O)N2C1 (some centres unmarked) [Compound 12b]
Percentage of all products (4 mM GSH, 1 h): 1.6% | Percentage of all products (4 mM GSH, 4 h): 0.2% | Percentage of all products (4 mM GSH, 24 h): 0%

C=C1C[C@H]2C=Nc3cc(OCCCCCOc4cc5c(cc4OC)C(=O)N4CC(=C)C[C@H]4C(O)N5C(=O)OCC4(S)CCC4)c(OC)cc3C(=O)N2C1 (some centres unmarked) [Compound 13]
Percentage of all products (30 μM cysteine, 1 h): 1.3% | Percentage of all products (30 μM cysteine, 4 h): 1.1% | Percentage of all products (30 μM cysteine, 24 h): 0.1% | Percentage of all products (200 μM cysteine, 1 h): 3.2% | Percentage of all products (200 μM cysteine, 4 h): 1.6% | Percentage of all products (200 μM cysteine, 24 h): 0% | Percentage of all products (4 mM GSH, 1 h): 2.3% | Percentage of all products (4 mM GSH, 4 h): 0% | Percentage of all products (4 mM GSH, 24 h): 0% | Immolation of thiol intermediate: efficient immolation

C=C1CC2C=Nc3cc(OCCCCCOc4cc5c(cc4OC)C(=O)N4CC(=C)CC4C(O)N5C(=O)OCC(C)SSc4ccc([N+](=O)[O-])cn4)c(OC)cc3C(=O)N2C1 (centres unmarked) [Compound 1]
Percentage of all products (30 μM cysteine, 1 h): 10.6% | Percentage of all products (30 μM cysteine, 4 h): 7.9% | Percentage of all products (30 μM cysteine, 24 h): 4.5% | Percentage of all products (200 μM cysteine, 1 h): 2.8% | Percentage of all products (200 μM cysteine, 4 h): 1.0% | Percentage of all products (200 μM cysteine, 24 h): 0% | Percentage of all products (4 mM GSH, 1 h): 9.1% | Percentage of all products (4 mM GSH, 4 h): 0.9% | Percentage of all products (4 mM GSH, 24 h): 0.1%

C=C1C[C@H]2C=Nc3cc(OCCCCCOc4cc5c(cc4OC)C(=O)N4CC(=C)C[C@H]4C(O)N5C(=O)OCC4(SSC[C@H](N)C(=O)O)CC4)c(OC)cc3C(=O)N2C1 (some centres unmarked) [Compound 4a]
Percentage of all products (30 μM cysteine, 1 h): 73.7% | Percentage of all products (30 μM cysteine, 4 h): 71.1% | Percentage of all products (30 μM cysteine, 24 h): 75.9% | Percentage of all products (200 μM cysteine, 1 h): 39.1% | Percentage of all products (200 μM cysteine, 4 h): 15.2% | Percentage of all products (200 μM cysteine, 24 h): 3.2%

C=C1CC2C=Nc3cc(OCCCCCOc4cc5c(cc4OC)C(=O)N4CC(=C)CC4C(O)N5C(=O)OCC(C)SSCC(NC(=O)CCC(N)C(=O)O)C(=O)NCC(=O)O)c(OC)cc3C(=O)N2C1 (centres unmarked) [Compound 3b]
Percentage of all products (4 mM GSH, 1 h): 0.3% | Percentage of all products (4 mM GSH, 4 h): 0% | Percentage of all products (4 mM GSH, 24 h): 0%

C=C1CC2C=Nc3cc(OCCCCCOc4cc5c(cc4OC)C(=O)N4CC(=C)CC4C(O)N5C(=O)OCC(C)S)c(OC)cc3C(=O)N2C1 (centres unmarked) [Compound 6]
Percentage of all products (30 μM cysteine, 1 h): 2.5% | Percentage of all products (30 μM cysteine, 4 h): 1.7% | Percentage of all products (30 μM cysteine, 24 h): 0.5% | Percentage of all products (200 μM cysteine, 1 h): 7.8% | Percentage of all products (200 μM cysteine, 4 h): 2.8% | Percentage of all products (200 μM cysteine, 24 h): 0.1% | Percentage of all products (4 mM GSH, 1 h): 2.6% | Percentage of all products (4 mM GSH, 4 h): 0% | Percentage of all products (4 mM GSH, 24 h): 0% | Immolation of thiol intermediate: immolated quickly

C=C1C[C@H]2C=Nc3cc(OCCCCCOc4cc5c(cc4OC)C(=O)N4CC(=C)C[C@H]4C(O)N5C(=O)OCC4(SSC[C@H](NC(=O)CC[C@H](N)C(=O)O)C(=O)NCC(=O)O)CC4)c(OC)cc3C(=O)N2C1 (some centres unmarked) [Compound 4b]
Percentage of all products (4 mM GSH, 1 h): 1.1% | Percentage of all products (4 mM GSH, 4 h): 0.4% | Percentage of all products (4 mM GSH, 24 h): 1.0%

C=C1CC2C=Nc3cc(OCCCCCOc4cc5c(cc4OC)C(=O)N4CC(=C)CC4C=N5)c(OC)cc3C(=O)N2C1 (centres unmarked) [Compound 8, reference compound]
Percentage of all products (30 μM cysteine, 1 h, listed as 1 to 8, compound 1 to 8 conversion): 6.8% | Percentage of all products (30 μM cysteine, 1 h, listed as 2 to 8, compound 2 to 8 conversion): 0.1% | Percentage of all products (30 μM cysteine, 1 h, listed as 11 to 8, compound 11 to 8 conversion): 3.6% | Percentage of all products (30 μM cysteine, 4 h, listed as 1 to 8, compound 1 to 8 conversion): 10.5% | Percentage of all products (30 μM cysteine, 4 h, listed as 2 to 8, compound 2 to 8 conversion): 0.1% | Percentage of all products (30 μM cysteine, 4 h, listed as 11 to 8, compound 11 to 8 conversion): 8.7% | Percentage of all products (30 μM cysteine, 24 h, listed as 1 to 8, compound 1 to 8 conversion): 20.5% | Percentage of all products (30 μM cysteine, 24 h, listed as 2 to 8, compound 2 to 8 conversion): 0.5% | Percentage of all products (30 μM cysteine, 24 h, listed as 11 to 8, compound 11 to 8 conversion): 27.6% | Percentage of all products (200 μM cysteine, 1 h, listed as 1 to 8, compound 1 to 8 conversion): 83.7% | Percentage of all products (200 μM cysteine, 1 h, listed as 2 to 8, compound 2 to 8 conversion): 0.1% | Percentage of all products (200 μM cysteine, 1 h, listed as 11 to 8, compound 11 to 8 conversion): 68.8% | Percentage of all products (200 μM cysteine, 4 h, listed as 1 to 8, compound 1 to 8 conversion): 94.4% | Percentage of all products (200 μM cysteine, 4 h, listed as 2 to 8, compound 2 to 8 conversion): 0.3% | Percentage of all products (200 μM cysteine, 4 h, listed as 11 to 8, compound 11 to 8 conversion): 83.2% | Percentage of all products (200 μM cysteine, 24 h, listed as 1 to 8, compound 1 to 8 conversion): 99.9% | Percentage of all products (200 μM cysteine, 24 h, listed as 2 to 8, compound 2 to 8 conversion): 2.5% | Percentage of all products (200 μM cysteine, 24 h, listed as 11 to 8, compound 11 to 8 conversion): 97.7% | Percentage of all products (4 mM GSH, 1 h, listed as 1 to 8, compound 1 to 8 conversion): 88.0% | Percentage of all products (4 mM GSH, 1 h, listed as 2 to 8, compound 2 to 8 conversion): 0.2% | Percentage of all products (4 mM GSH, 1 h, listed as 11 to 8, compound 11 to 8 conversion): 86.7% | Percentage of all products (4 mM GSH, 4 h, listed as 1 to 8, compound 1 to 8 conversion): 98.5% | Percentage of all products (4 mM GSH, 4 h, listed as 2 to 8, compound 2 to 8 conversion): 0.4% | Percentage of all products (4 mM GSH, 4 h, listed as 11 to 8, compound 11 to 8 conversion): 94.9% | Percentage of all products (4 mM GSH, 24 h, listed as 1 to 8, compound 1 to 8 conversion): 99.9% | Percentage of all products (4 mM GSH, 24 h, listed as 2 to 8, compound 2 to 8 conversion): 2.3% | Percentage of all products (4 mM GSH, 24 h, listed as 11 to 8, compound 11 to 8 conversion): 99.3%

C=C1C[C@H]2C=Nc3cc(OCCCCCOc4cc5c(cc4OC)C(=O)N4CC(=C)C[C@H]4C(O)N5C(=O)OCC4(SSC[C@H](N)C(=O)O)CCC4)c(OC)cc3C(=O)N2C1 (some centres unmarked) [Compound 12a]
Percentage of all products (30 μM cysteine, 1 h): 73.5% | Percentage of all products (30 μM cysteine, 4 h): 74.8% | Percentage of all products (30 μM cysteine, 24 h): 66.7% | Percentage of all products (200 μM cysteine, 1 h): 21.5% | Percentage of all products (200 μM cysteine, 4 h): 11.6% | Percentage of all products (200 μM cysteine, 24 h): 0.8%

C=C1C[C@H]2C=Nc3cc(OCCCCCOc4cc5c(cc4OC)C(=O)N4CC(=C)C[C@H]4C(O)N5C(=O)OCC4(SSc5ccc([N+](=O)[O-])cn5)CCC4)c(OC)cc3C(=O)N2C1 (some centres unmarked) [Compound 11]
Percentage of all products (30 μM cysteine, 1 h): 21.2% | Percentage of all products (30 μM cysteine, 4 h): 15.5% | Percentage of all products (30 μM cysteine, 24 h): 4.8% | Percentage of all products (200 μM cysteine, 1 h): 6.5% | Percentage of all products (200 μM cysteine, 4 h): 3.6% | Percentage of all products (200 μM cysteine, 24 h): 1.5% | Percentage of all products (4 mM GSH, 1 h): 9.1% | Percentage of all products (4 mM GSH, 4 h): 4.5% | Percentage of all products (4 mM GSH, 24 h): 0.7%

C=C1CC2C=Nc3cc(OCCCCCOc4cc5c(cc4OC)C(=O)N4CC(=C)CC4C(O)N5C(=O)OCC(C)SSCC(N)C(=O)O)c(OC)cc3C(=O)N2C1 (centres unmarked) [Compound 3a]
Percentage of all products (30 μM cysteine, 1 h): 80.1% | Percentage of all products (30 μM cysteine, 4 h): 79.9% | Percentage of all products (30 μM cysteine, 24 h): 75.0% | Percentage of all products (200 μM cysteine, 1 h): 5.6% | Percentage of all products (200 μM cysteine, 4 h): 1.9% | Percentage of all products (200 μM cysteine, 24 h): 0%

— patent US10729738B2, “Hindered disulfide drug conjugates” (priority 2015, dated 2020)
